Assay results published in US11203015B2, “Microfluidic device” (TECHNISCHE UNIVERSITAT WIEN, priority 2016, dated 2021).

Tested on: human umbilical vain endothelial cells (HUVECs)
Assay: microfluidic wound healing assay (membrane deflection, cell depletion)
Assay type: cell-based
Description: Lentivirally transduced GFP HUVEC (human umbilical vain endothelial cells) were obtained from Olaf pharmaceuticals (USA) and cultivated in gelatin coated 25 cm^2 cell culture flasks and maintained in EGM-2 (Lonza, CC3156) supplemented with EGM-2 SingleQuots (Lonza, CC4176). The coating was performed using 1% gelatin solution (9000-70-8, Sigma Aldrich) in DPBS and was incubated for 30 min at 37° C. For on chip experiments the medium was supplemented with 1% hepes buffer (J848, AMRESCO). For the coating experiment 500 mM NaOH was inserted to the microfluidic channels, incubated for 15 min at RT, following rinsing with PBS and a protein mixture comprising 10 μg/m fibronectin (Sigma Aldrich, F4759) and […] fibrinogen conjugated with Alexa Fluor 488 (Thermo Fisher, F13191) was incubated for 1 h at 37° C.
The microfluidic device of example 1 was placed on a heating plate equipped with a temperature controller. The temperature of the plate was adjusted to reach 37° C. on top of the microdevice. For the on-chip wound healing assays the microchip was first sterilized using 70% ethanol, rinsed using a 1 M NaOH solution for 15 min and washed with PBS prior coating using a 1% gelatin solution for 1 h. Cell suspension of desired concentration was prepared and inserted into microchannels using plastic syringe (1 ml). Cells were allowed to adhere for 1 h in the absence of fluid flow followed by a constant medium perfusion of 4 μl/min using syringe pump. As soon as the cells were grown confluent (typically 1 to 2 days) cells were mechanically damaged (“squeezed”) by the PDMS membrane, which bended under force towards the cell layer. Bending was induced by manual increase of pressure load to 150 kPa (differential pressure) followed by immediate release to 0 kPa using a pressure controller. To further remove residual cell debris from the substrate multiple membrane deflections (minimum of three times) were performed. During the mechanical damaging the medium perfusion was always kept on.
The fluorescence pictures were transformed to grey scale, the contrast increased and the leading edge of the wound selected using the Magic wand tool. This image was then processed using Image) by determining the cell-free area with the tool Analyze Particles.
Next the ability to create defined and reproducible cell depletion zones within a confluent cell monolayer was evaluated using the membrane deflection method. In a series of experiments endothelial cells were seeded and cultivated in a microfluidic channel for a minimum period of 6 hours prior cell removal. During the entire wound healing assay including the cell depletion procedure the applied flow rate of 3 μl/min was kept constant to ensure complete removal of cell debris following membrane compression. In addition to maintaining an intact coating, a further aspect that may also influence cell migration is associated with the release of biochemical factors from viable but injured cells at the edge of the wounding area. To investigate whether cells located in the adjacent vicinity of the cell-free area are injured by membrane compression, dead staining using ethidium homodimer-1 was conducted in subsequent experiments. Results indicated the presence of red fluorescently labelled DNA debris present in the cell-free area following 1 h after wound induction. More importantly, none of the leading edge cells appeared damaged by the membrane compression, since only DNA from lysed cells inside the wound remained on the substrate. […]

[1] = 10 μg/ml Mitomycin-C, one hour exposure, flow rate 3 μl/min, after 6 h

In the case of `CO[C@@]12[C@H](COC(N)=O)C3=C(C(=O)C(C)=C(N)C3=O)N1C[C@@H]1N[C@@H]12` [Mitomycin-C], the “wound closure observed after” value (10 μg/ml Mitomycin-C, one hour exposure) is reported as 24 h, the “cell-free area, times larger compared to TNF-α treated cells” value [1] is reported as 1.5 and the “cell-free area, times larger compared to control experiments” value [1] is reported as 5. For the same compound, the “cell density within the wounded area” value (10 μg/ml Mitomycin-C, after 24 h, compared to control) was “visibly reduced”.
TNF-α was tested, and the “remaining cell-free area, factor larger than control experiments” value (1 ng/ml TNF-α in medium immediately after wound induction and maintained, 6 h post wounding) was 3.3.
